This note sets out measurements from patent publication US7378397B2 (The Provost, Fellows and Scholars of the College of the …, priority 2000, dated 2008).

Values after ≈ are worked out from the molar mass of the structure shown. Where a SMILES comes first, the peptide text is derived from it. [ ]: non-standard residue; d: D form. pGlu = O=C1CC[C@@H](C(=O)O)N1

The target of one data set is T1, TRH-DE (Sus scrofa, UniProt A0A287AP33).
T1 construct: The inventor purified TRH-DE from porcine brain according to purification procedures previously published by Dr. K. Bauer; from tissue; host or cells: porcine brain (TRH-DE); bovine kidney (DPP-IV, gift from Dr. C. H. Williams)
In words: continuous coupled fluorometric TRH-DE assay (TRHAMC substrate, DPP-IV coupling enzyme). The format is biochemical, porcine. As to conditions: for Ki: non-linear regression, five TRHAMC concentrations and at least three peptide concentrations, mean±S.D. (n=3). The essentials: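 Porcine brain TRH-DE assayed continuously with 5 μM TRHAMC and bovine kidney DPP-IV as coupling enzyme in 20 mM potassium phosphate pH 7.5, 37° C; AMC fluorescence (ex 370/em 440 nm) sampled after 100 s. Screening at 1 mM peptide gave % inhibition; Ki from five substrate and ≥3 peptide concentrations, duplicate.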

For the next data set, the system named is Male Wistar rats. Kind of data set: behavioural effects (activity score, WDS, locomotion) after i.p. administration. The format is in vivo, rat. The protocol: Methods: Behavioural studies were conducted using experimentally naïve Male Wistar rats (200-250 g) maintained in a temperature controlled (21° C.), artificially-lighted (12 hr light cycle) room with free access to food and water. Behavioural effects of TRH±TRH-DE inhibitor following intraperitoneal (i.p.) administration: On the day of the experiment, animals were singly housed in perspex cages (30×20×20 cm) and allowed to acclimatize for 20 min. After this period, two baseline measurements of behaviour were made at 10 and 5 min prior to administration of drugs. […] Animals were then observed by two independent observers who were blind to treatment, every 5 min for 30 sec. Blocks of 5 animals were treated at a time, 1 per drug group. Blocks were repeated 5 times. The occurrence of individual behaviours were noted using a behavioural check list, which included grooming, locomotion, rearing, chewing, sniffing, head weave, tail elevation, and/or straub tail and WDS behaviours. These behaviours were summed to yield an overall activity count. Animals were videotaped for separate subsequent analysis of WDS. All WDS behaviours occurring during each 5 min interval after drug administration were counted. The statistical significance of differences between behavioural effects of treatments was determined using the Student's t-test or ANOVA, followed by a post-ANOVA test, as indicated. Radioligand binding data were analysed using non-linear curve fitting software (Prism, Graph Pad Software Inc.). IC50 values calculated from competition experiments were converted to Ki values using the Cheng-Prusoff (41) equation Ki=IC50/(1+L/Kd), where L=ligand concentration and Kd=the apparent dissociation constant for [^3[…].

The target of data set [1] is TRH receptors in rat cortical membranes. In words: radioligand binding to ^3H-3MeHis-TRH-labelled receptors in rat cortex. To be noted: competition with 6-8 nM ^3H-3MeHis-TRH, Cheng-Prusoff. The protocol:
Evaluation of the ability of TRH, Glp-Asn-ProNH2, and Glp-Asn-ProAMC to bind to ^3H-3MeHis-TRH-labelled receptors in rat cortex: Radioligand binding assays were conducted to investigate the possibility that the two TRH-DE inhibitors might exert their effects by acting independently at TRH receptors in the brain.
Cortex tissue from male Sprague-Dawley rats (250 g) was dissected out, weighed and homogenised in 30 volumes of ice-cold sodium phosphate buffer (0.02 M, pH 7.5). The homogenates were centrifuged at 30,000 g at 4° C. for 30 min. The supernatant was discarded and the pellet was resuspended at 100 mg wet wt/ml in buffer containing 177 μM bacitracin. […] Non-specific binding was defined in the presence of 10 μM TRH.
The statistical significance of differences between behavioural effects of treatments was determined using the Student's t-test or ANOVA, followed by a post-ANOVA test, as indicated. Radioligand binding data were analysed using non-linear curve fitting software (Prism, Graph Pad Software Inc.). IC50 values calculated from competition experiments were converted to Ki values using the Cheng-Prusoff (41) equation Ki=IC50/(1+L/Kd), where L=ligand concentration and Kd=the apparent dissociation constant for [^3H]-[3-MeHis]TRH.

T1 sequence (A0A287AP33 1-1066): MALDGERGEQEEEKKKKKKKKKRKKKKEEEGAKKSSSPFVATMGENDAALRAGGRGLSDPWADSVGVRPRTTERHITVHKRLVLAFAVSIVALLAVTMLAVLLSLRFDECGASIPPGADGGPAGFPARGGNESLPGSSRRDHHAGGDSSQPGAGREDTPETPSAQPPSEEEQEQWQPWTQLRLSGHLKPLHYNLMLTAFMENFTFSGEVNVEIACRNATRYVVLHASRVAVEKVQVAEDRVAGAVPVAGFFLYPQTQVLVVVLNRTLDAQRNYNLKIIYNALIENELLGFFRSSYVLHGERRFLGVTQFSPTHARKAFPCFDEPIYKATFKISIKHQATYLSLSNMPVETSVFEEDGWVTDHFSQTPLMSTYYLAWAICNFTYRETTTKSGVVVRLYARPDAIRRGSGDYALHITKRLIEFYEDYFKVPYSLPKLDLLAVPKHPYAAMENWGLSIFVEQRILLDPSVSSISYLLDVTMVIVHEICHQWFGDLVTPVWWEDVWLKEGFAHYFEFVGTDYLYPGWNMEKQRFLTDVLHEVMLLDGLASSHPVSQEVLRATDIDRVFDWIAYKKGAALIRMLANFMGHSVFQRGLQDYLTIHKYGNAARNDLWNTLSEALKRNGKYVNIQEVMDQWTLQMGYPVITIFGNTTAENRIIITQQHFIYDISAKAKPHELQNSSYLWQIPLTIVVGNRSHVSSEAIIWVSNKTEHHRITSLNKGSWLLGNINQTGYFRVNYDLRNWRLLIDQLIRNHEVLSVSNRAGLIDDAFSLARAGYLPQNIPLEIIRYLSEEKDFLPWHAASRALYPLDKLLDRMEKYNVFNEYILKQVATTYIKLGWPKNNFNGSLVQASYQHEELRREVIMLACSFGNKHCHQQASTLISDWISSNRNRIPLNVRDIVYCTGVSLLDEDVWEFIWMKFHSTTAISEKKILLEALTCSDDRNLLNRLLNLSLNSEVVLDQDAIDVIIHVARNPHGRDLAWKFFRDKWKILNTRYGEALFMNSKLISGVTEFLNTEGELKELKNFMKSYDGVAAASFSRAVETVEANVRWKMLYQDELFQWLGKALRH

What is called Ki is a measure of affinity in units of concentration, obtained from inhibition or displacement. A high value points to a looser hold on the target. One may read the inhibition as the drop in the measured response relative to a control, in per cent. Lower therefore signals a weak effect. The solubility is the dissolved amount per volume that the medium holds. Lower therefore signals a poorly soluble substance. As a reminder, the pKi is the Ki on a negative log10 scale, so that one unit is a factor of ten. Regarding `NC(=O)C[C@H](NC(=O)[C@@H]1CCC(=O)N1)C(=O)N1CCC[C@H]1C(N)=O` [Glp-Asn-ProNH2, pyroglutamyl-asparaginyl-prolineamide] ([pGlu]-Asn-Pro-NH2), the “mode of inhibition of TRH-DE” value on TRH-DE (continuous assay, Lineweaver-Burk plot) is recorded as “simple competitive inhibitors”. Moreover, the Ki on TRH-DE and at TRH-DE (listed as Glp-Asn-Pro-NH2) was 17.5 µM throughout. On TRH-DE (peptide 1 mM, 5 μM TRHAMC substrate), this compound gave an inhibition at 1000 µM of 97%. The “reversibility and time dependence of inhibition” value on TRH-DE (preincubation with TRH-DE up to 75 min at 37° C., Glp-Gln-ProNH2 400, Glp-Asn-ProNH2 160, Glp-Asn-ProAMC 1 μM) was “fully reversible and not time-dependent”. Also, the increase in locomotion entry in the data set with Male Wistar rats (i.p. administration, 10 mg/kg) is on record as “not detected”. For the same compound, the “rat activity scores compared with saline” value with Male Wistar rats (i.p., 10 mg/kg each, 40 min post injection) was “significantly increased activity counts”. Moreover, the concentration in solution in the data set “physchem” (solubility) was 1000 µg/mL (≈ 2950 µM). This compound registered a pKi in data set [1] of 5.15±0.24.
